From patent US10004701B2, “Methods and compositions for treating infection” (UNIVERSITY OF ROCHESTER, priority 2012, dated 2018) come the findings set out here.

Holding throughout (test): AK assay 384-well format, Prestwick library screening
In one test the test system is E. faecium. It counts as cell-based, Enterococcus faecium. To be noted: 50 μM final drug concentration; for fold induction at 50 µM: Enterococcus faecium, 3 h.
The next test concerns E. cloacae. It counts as cell-based, Enterobacter cloacae. Conditions: 50 μM final drug concentration; for fold induction at 50 µM: Enterobacter cloacae, 3 h.
In test [1] the test system is A. baumannii strain 98-37-09. It counts as cell-based, Acinetobacter baumannii. Conditions: 50 μM final drug concentration; for fold induction at 50 µM: Acinetobacter baumannii, 983709, 3 h.
In test [2] the test system is S. aureus strain USA300-0114. It counts as cell-based, Staphylococcus aureus. To be noted: 50 μM final drug concentration; for fold induction at 50 µM: Staphylococcus aureus, USA300, 3 h.
The test system of a further test is K. pneumoniae. It counts as cell-based, Klebsiella pneumoniae. To be noted: 50 μM final drug concentration; for fold induction at 50 µM: Klebsiella pneumoniae, 3 h.
The test system of the next test is P. aeruginosa. It counts as cell-based, Pseudomonas aeruginosa. Conditions: 50 μM final drug concentration; for fold induction at 50 µM: Pseudomonas aeruginosa, 3 h.
The subject of a further test is E. coli. It counts as cell-based, Escherichia coli. Conditions: 50 μM final drug concentration; for fold induction at 50 µM: Escherichia coli, 3 h.
The mark [3] stands for this setting: planktonic, cutoff for positive-scoring molecules 3-fold increase, read-out: AK-based Prestwick Library Screening Results, E. faecium (fold increase in extracellular AK activity).
[4] abbreviates: planktonic, cutoff for positive-scoring molecules 3-fold increase, read-out: AK-based Prestwick Library Screening Results, E. cloacae (fold increase in extracellular AK activity).
Setting [5] is: planktonic, cutoff for positive-scoring molecules 3-fold increase, read-out: AK-based Prestwick Library Screening Results, A. baumannii (fold increase in extracellular AK activity).
The mark [6] stands for this setting: planktonic, cutoff for positive-scoring molecules 3-fold increase, read-out: AK-based Prestwick Library Screening Results, S. aureus (fold increase in extracellular AK activity).
Where [7] appears, read: planktonic, cutoff for positive-scoring molecules 3-fold increase, read-out: AK-based Prestwick Library Screening Results, K. pneumoniae (fold increase in extracellular AK activity).
[8] abbreviates: planktonic, cutoff for positive-scoring molecules 3-fold increase, read-out: AK-based Prestwick Library Screening Results, P. aeruginosa (fold increase in extracellular AK activity).
[9] abbreviates: planktonic, cutoff for positive-scoring molecules 3-fold increase, read-out: AK-based Prestwick Library Screening Results, E. coli (fold increase in extracellular AK activity).

Like-named read-outs stand apart in the source and are kept apart here.

With `C[C@]12CC[C@@H]3c4ccc(OS(=O)(=O)O)cc4CC[C@H]3[C@@H]1CCC2=O` [Estropipate], the fold induction at 50 µM was 1 in the test on E. faecium (setting [3]); 1.3 in the test on E. cloacae (setting [4]); 1 in test [1] (setting [5]); 1.1 in test [2] (setting [6]); 1 with K. pneumoniae (setting [7]); 1.1 in the test on P. aeruginosa (setting [8]). Moreover, in the test on E. coli (setting [9]), the fold induction at 50 µM stood at 1.1.
On to `C[N+]1(C)CCCC(OC(=O)C(O)(c2ccccc2)c2ccccc2)C1` (centres unmarked) [Mepenzolate bromide], for which the fold induction at 50 µM in the test with E. faecium (setting [3]) is 1; with E. cloacae (setting [4]), 0.7; in test [1] (setting [5]) it was 0.7; in test [2] (setting [6]) it was 0.6; in the test on K. pneumoniae (setting [7]), 0.6; in the test on P. aeruginosa (setting [8]), 0.6. In the test on E. coli (setting [9]), the fold induction at 50 µM came to 0.6.
On to `CC(=O)[C@H]1CC[C@H]2[C@@H]3C[C@H](C)C4=CC(=O)CC[C@]4(C)[C@H]3[C@@H](O)C[C@]12C` [Medrysone], for which the fold induction at 50 µM with E. faecium (setting [3]) came out at 1; in the test on E. cloacae (setting [4]), 1; in test [1] (setting [5]), 0.7; in test [2] (setting [6]) it was 0.6; in the test with K. pneumoniae (setting [7]), 0.7; with P. aeruginosa (setting [8]), 0.8. The fold induction at 50 µM with E. coli (setting [9]) amounted to 0.7.
Consider `CCN(CC)CCOC(=O)C1(c2ccc([N+](=O)[O-])cc2)CCCC1.Cl` [Nitrocaramiphen hydrochloride], for which the “AK-based Prestwick library screening result, E. faecium (fold increase in extracellular AK activity)” value with E. faecium (planktonic E. faecium, […]) came to 0.9. Moreover, the “AK-based Prestwick library screening result, E. cloacae (fold increase in extracellular AK activity)” value in the test on E. cloacae (planktonic E. cloacae, […]) was found to be 1.2. Moreover, in test [1] (planktonic A. baumannii, […]), the “AK-based Prestwick library screening result, A. baumannii (fold increase in extracellular AK activity)” value amounted to 0.7. For the same compound, the “AK-based Prestwick library screening result, S. aureus (fold increase in extracellular AK activity)” value in test [2] (planktonic S. aureus, […]) stood at 0.6. In the test with K. pneumoniae (planktonic K. pneumoniae, […]), the “AK-based Prestwick library screening result, K. pneumoniae (fold increase in extracellular AK activity)” value is 0.7. The “AK-based Prestwick library screening result, P. aeruginosa (fold increase in extracellular AK activity)” value in the test on P. aeruginosa (planktonic P. aeruginosa, […]) worked out at 0.8. Moreover, the “AK-based Prestwick library screening result, E. coli (fold increase in extracellular AK activity)” value in the test with E. coli (planktonic E. coli, […]) was 0.9.
Turning to `C=C(CC)C(=O)c1ccc(OCC(=O)O)c(Cl)c1Cl` [Ethacrynic acid], the fold induction at 50 µM came out at 1.3 in the test on E. faecium (384-well format, cutoff for positive-scoring molecules 3-fold increase, read-out: AK-based Prestwick Library Screening Results, E. faecium (increase in extracellular AK activity)); 0.8 with E. cloacae (384-well format, cutoff for positive-scoring molecules 3-fold increase, read-out: AK-based Prestwick Library Screening Results, E. cloacae (increase in extracellular AK activity)); 0.8 in test [1] (384-well format, cutoff for positive-scoring molecules 3-fold increase, read-out: AK-based Prestwick Library Screening Results, A. baumannii (increase in extracellular AK activity)); 1.4 in test [2] (384-well format, cutoff for positive-scoring molecules 3-fold increase, read-out: AK-based Prestwick Library Screening Results, S. aureus (increase in extracellular AK activity)); 0.6 in the test with K. pneumoniae (384-well format, cutoff for positive-scoring molecules 3-fold increase, read-out: AK-based Prestwick Library Screening Results, K. pneumoniae (increase in extracellular AK activity)); 0.7 in the test on P. aeruginosa (384-well format, cutoff for positive-scoring molecules 3-fold increase, read-out: AK-based Prestwick Library Screening Results, P. aeruginosa (increase in extracellular AK activity)). Moreover, the fold induction at 50 µM in the test with E. coli (384-well format, cutoff for positive-scoring molecules 3-fold increase, read-out: AK-based Prestwick Library Screening Results, E. coli (increase in extracellular AK activity)) was 0.7.
With `C=C1C/C(=C/C)C(=O)O[C@@H]2CCN3CC=C(COC(=O)[C@]1(C)O)[C@H]23` [Seneciphylline], the fold induction at 50 µM in the test on E. faecium (planktonic E. faecium, […], read-out: AK-based Prestwick Library Screening Results, E. faecium (increase in extracellular AK activity)) is 0.9; with E. cloacae (planktonic E. cloacae, […], read-out: AK-based Prestwick Library Screening Results, E. cloacae (increase in extracellular AK activity)), 1.2; in test [1] (planktonic A. baumannii, […], read-out: AK-based Prestwick Library Screening Results, A. baumannii (increase in extracellular AK activity)), 0.8; in test [2] (planktonic S. aureus, […], read-out: AK-based Prestwick Library Screening Results, S. aureus (increase in extracellular AK activity)), 0.8; with K. pneumoniae (planktonic K. pneumoniae, […], read-out: AK-based Prestwick Library Screening Results, K. pneumoniae (increase in extracellular AK activity)), 0.7; with P. aeruginosa (planktonic P. aeruginosa, […], read-out: AK-based Prestwick Library Screening Results, P. aeruginosa (increase in extracellular AK activity)), 0.8. Further, in the test with E. coli (planktonic E. coli, […], read-out: AK-based Prestwick Library Screening Results, E. coli (increase in extracellular AK activity)), the fold induction at 50 µM was determined as 0.9.
With `CCN1C[C@]2(COC)CC[C@H](O)[C@@]34C5C[C@@H]6[C@@H](OC)C[C@](O)(C(CC23)C14)C5[C@H]6OC(C)=O` (some centres unmarked) [Condelphine], the fold induction at 50 µM amounted to 1.1 in the test with E. faecium (planktonic E. faecium, […], read-out: AK-based Prestwick library screening result, E. faecium (fold increase in extracellular AK activity)); 1.2 in the test with E. cloacae (planktonic E. cloacae, […], read-out: AK-based Prestwick library screening result, E. cloacae (fold increase in extracellular AK activity)); 1.1 in test [1] (planktonic A. baumannii, […], read-out: AK-based Prestwick library screening result, A. baumannii (fold increase in extracellular AK activity)); 1.1 in test [2] (planktonic S. aureus, […], read-out: AK-based Prestwick library screening result, S. aureus (fold increase in extracellular AK activity)); 1 in the test with K. pneumoniae (planktonic K. pneumoniae, […], read-out: AK-based Prestwick library screening result, K. pneumoniae (fold increase in extracellular AK activity)); 1 in the test with P. aeruginosa (planktonic P. aeruginosa, […], read-out: AK-based Prestwick library screening result, P. aeruginosa (fold increase in extracellular AK activity)). In addition, the fold induction at 50 µM in the test on E. coli (planktonic E. coli, […], read-out: AK-based Prestwick library screening result, E. coli (fold increase in extracellular AK activity)) was found to be 1.1.
For the compound `C[C@H](CCC(=O)O)[C@H]1CC[C@H]2[C@@H]3CC[C@@H]4C[C@H](O)CC[C@]4(C)[C@H]3CC[C@]12C` [Lithocholic acid], the fold induction at 50 µM came out at 1.2 in the test with E. faecium (cutoff for positive-scoring molecules 3-fold increase, read-out: AK-based Prestwick Library Screening Results, E. faecium (fold increase in extracellular AK activity)); 1.7 with E. cloacae (cutoff for positive-scoring molecules 3-fold increase, read-out: AK-based Prestwick Library Screening Results, E. cloacae (fold increase in extracellular AK activity)); 1 in test [1] (cutoff for positive-scoring molecules 3-fold increase, read-out: AK-based Prestwick Library Screening Results, A. baumannii (fold increase in extracellular AK activity)); 1.1 in test [2] (cutoff for positive-scoring molecules 3-fold increase, read-out: AK-based Prestwick Library Screening Results, S. aureus (fold increase in extracellular AK activity)); 0.8 with K. pneumoniae (cutoff for positive-scoring molecules 3-fold increase, read-out: AK-based Prestwick Library Screening Results, K. pneumoniae (fold increase in extracellular AK activity)); 1 in the test on P. aeruginosa (cutoff for positive-scoring molecules 3-fold increase, read-out: AK-based Prestwick Library Screening Results, P. aeruginosa (fold increase in extracellular AK activity)). In addition, the fold induction at 50 µM in the test on E. coli (cutoff for positive-scoring molecules 3-fold increase, read-out: AK-based Prestwick Library Screening Results, E. coli (fold increase in extracellular AK activity)) was 0.8.
